Laboratory results reported in article PMC11514582, “Leveraging the Aggregated Protein Dye YAT2150 for Malaria Chemotherapy” (Pharmaceutics, 2024).
Where two headings read alike, the source gives them in different places.

Assays:
[1] = tested on: P. falciparum asexual blood stages; assay: microbe, parasite or virus in culture; conditions: Plasmodium falciparum
Description: The asexual blood stages of P. falciparum parasites of the 3D7 strain (Malaria Research and Reference Reagent Resource Center, Manassas, VA, USA) were cultured in group B human RBCs at 3% hematocrit, which was kept throughout the experiments, and incubated in RPMIc. Parasites were maintained at 37 °C under an atmosphere of 5% O2, 5% CO2, and 90% N2. […] The parasites were then cultured under standard conditions for 48 h, allowing for a complete replication cycle. After the incubation period, 3 µL of culture from each well was mixed with 197 µL of PBS containing 0.1 µM Syto 11 (Thermo Fisher Scientific, Inc.) to obtain a final concentration of 1 × 10^6 to 10 × 10^6 cells/mL. Parasitemia levels were measured using an LSRFortessa flow cytometer equipped with a standard configuration of four lasers and 20 parameters. Single-cell populations were identified on a forward-side scatter plot. […] The inhibition data were then transformed using sigmoidal fitting to determine IC50.
For stage arrest assays, P. falciparum cultures were tightly synchronized in schizont stages by repeated treatment with 70% Percoll (GE Healthcare, Chicago, IL, USA) [26, 27]. […] Pictures were taken with a Nikon Eclipse 50i microscope equipped with a DS-Fi1 camera (Nikon Corporation, Tokyo, Japan).

[2] = molecular target: recombinant human cytochrome P450 enzyme CYP3A4 (Homo sapiens, UniProt P08684); assay: biochemical
[3] = Cytotoxicity assay in A2780 (MTT); assay type: cell-based; conditions: human, A2780 cells, read-out: A2780 inhibition (CC50)
Description: (§1) THP-1 human acute monocytic leukemia cells and NCI-H460 human lung carcinoma cells were grown in RPMI supplemented with 10% FBS. Hep-G2 human hepatocellular carcinoma cells were cultured in Eagle’s minimum essential medium (EMEM) supplemented with 10% FBS. A2780 human ovarian carcinoma cells were grown in RPMI supplemented with 10% FBS and 2 mM L-glutamine. MCF-7 human breast adenocarcinoma cells were cultured in EMEM containing 2 mM L-glutamine and Earle’s balanced salt solution adjusted with 1.5 g/L sodium bicarbonate, 0.1 mM non-essential amino acids, and 1 mM sodium pyruvate and supplemented with 10% FBS. […] Except for Caco-2 and HUVEC, inhibition of cell growth was evaluated using a protocol based on monitoring the transformation into formazan of the tetrazolium salt of MTT (3-(4,5-dimethylthiazol-2-yl)-2,5-diphenyltretrazolium bromide) by metabolically active cells. […] After 96 further h of incubation in the same conditions, 10 µL of a 5 mg/mL MTT solution in PBS was added to each sample, and the incubation was resumed for another 4 h. […] The absorbance measurement range was framed between one sample containing 4000 cells in plain growth medium (to determine the stable cell concentration) and another sample containing an equal cell number in growth medium supplemented with growth factors (to measure the maximum cell growth at 96 h).

LYWIYY peptide = assay: Transmission electron microscopy of peptide aggregation; assay type: biochemical, Plasmodium falciparum; conditions: 100 nM, 25 µM peptide, 24 h after disaggregation
Description: To disaggregate peptides before the assay, 1 mg of lyophilized peptide was dissolved in 1 mL of trifluoroacetic acid (TFA), which, after thoroughly mixing, was evaporated under a N2 stream, and 500 µL of 1,1,1,3,3,3-hexafluoro-2-propanol (HFIP; Honeywell Fluka-Thermo Fisher Scientific, Inc.) were added, mixed well, and evaporated as mentioned before (repeated twice to fully remove TFA). Then, 500 µL of HFIP was added, and the solution was divided into aliquots and placed in a desiccator overnight. Afterward, 500 µL of PBS was added to each aliquot to have a final peptide concentration of 25 µM, and, to ensure minimal aggregation (t0), the samples were sonicated for 10 min in a water bath sonicator (FB15053 ultrasonic bath, Thermo Fisher Scientific, Inc.). To study the effect of YAT2150 on peptide aggregation, the compound was added at a final concentration of 100 nM and incubated for 24 h at 37 °C under stirring at 1400 rpm (t24). For disaggregation analysis, a 25 µM peptide aliquot was first pre-aggregated for 24 h (37 °C, 1400 rpm); after this time, YAT2150 was added at a final concentration of 100 nM, and the samples were incubated for an additional 24 h in the same conditions (t48). Control samples in the absence of YAT2150 were included. A 5-μL drop of each sample was deposited onto a carbon-coated copper grid (Ted Pella, Redding, CA, USA) for 1 h. […]

[4] = tested on: liver stages of P. berghei in Huh7; conditions: human hepatoma cell line Huh7; read-out: IC50 against liver stages of P. berghei; cited from earlier work
[5] = Cytotoxicity assay in HEP-G2 (MTT); assay type: cell-based; conditions: human, Hep-G2 cells, read-out: HEP-G2 inhibition (CC50)
Description: as §1

[6] = Cytotoxicity across seven human cell lines; assay type: cell-based; conditions: range over cell types, read-out: CC50 in seven different human cell lines
Description: THP-1 human acute monocytic leukemia cells and NCI-H460 human lung carcinoma cells were grown in RPMI supplemented with 10% FBS. Hep-G2 human hepatocellular carcinoma cells were cultured in Eagle’s minimum essential medium (EMEM) supplemented with 10% FBS. A2780 human ovarian carcinoma cells were grown in RPMI supplemented with 10% FBS and 2 mM L-glutamine. MCF-7 human breast adenocarcinoma cells were cultured in EMEM containing 2 mM L-glutamine and Earle’s balanced salt solution adjusted with 1.5 g/L sodium bicarbonate, 0.1 mM non-essential amino acids, and 1 mM sodium pyruvate and supplemented with 10% FBS. […] Except for Caco-2 and HUVEC, inhibition of cell growth was evaluated using a protocol based on monitoring the transformation into formazan of the tetrazolium salt of MTT (3-(4,5-dimethylthiazol-2-yl)-2,5-diphenyltretrazolium bromide) by metabolically active cells. […] The incubation was continued for an additional 12 to 14 h, and absorbance was measured at 595 nm (Tecan M1000 Infinite® Pro, Tecan Trading AG, Männedorf, Switzerland). The absorbance measurement range was framed between one sample containing 4000 cells in plain growth medium (to determine the stable cell concentration) and another sample containing an equal cell number in growth medium supplemented with growth factors (to measure the maximum cell growth at 96 h). […]

Sequence of recombinant human cytochrome P450 enzyme CYP3A4 (P08684 whole entry): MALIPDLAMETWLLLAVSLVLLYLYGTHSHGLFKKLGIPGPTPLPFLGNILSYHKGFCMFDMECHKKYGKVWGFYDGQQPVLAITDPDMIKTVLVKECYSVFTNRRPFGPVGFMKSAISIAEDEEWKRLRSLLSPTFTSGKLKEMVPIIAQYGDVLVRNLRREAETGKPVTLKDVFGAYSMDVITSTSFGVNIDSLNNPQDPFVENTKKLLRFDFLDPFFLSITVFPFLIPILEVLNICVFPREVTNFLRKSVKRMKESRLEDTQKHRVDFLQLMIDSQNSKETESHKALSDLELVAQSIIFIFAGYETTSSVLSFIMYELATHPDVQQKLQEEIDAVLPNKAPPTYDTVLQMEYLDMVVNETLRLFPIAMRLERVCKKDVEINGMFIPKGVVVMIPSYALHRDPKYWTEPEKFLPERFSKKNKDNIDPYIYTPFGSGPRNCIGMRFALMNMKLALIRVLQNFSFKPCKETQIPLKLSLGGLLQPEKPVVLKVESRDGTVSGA

`CCN(CC)c1ccc(/C=C/c2cc[n+](CCCCCCCCCC[n+]3ccc(/C=C/c4ccc(N(CC)CC)cc4)c(C)c3)cc2C)cc1` [YAT2150] showed an IC50 ([1]; 3D7, 48 h, read-out: IC50 in P. falciparum asexual blood stages) of 90.5 ± 7 nM, an IC80 ([1]; 3D7, read-out: IC80 (stage arrest assay)) of 200 nM and an IC50 ([1]; 2 h, read-out: IC50 ± SEM) of 224 ± 27 nM. The IC50 [2] was 1000 nM, the CC50 at 96 h [3] was 590 ± 160 nM and the “effect on LYWIYY aggregation (TEM)” value (LYWIYY peptide) was “significantly abolished after 24 h the formation of LYWIYY amyloid fibrils”. For the same compound, the IC50 [4] was 780 nM, the CC50 at 96 h [5] was 2540 ± 80 nM and the CC50 [6] was 590 to 18200 nM.
